The record followed here is patent US20230073755A1, “USE OF IGF1 IN COMBINATION WITH IGFEC24 IN PREPARATION OF MEDICINE FOR PROMOTING TISSUE REPAIR AND REGENERATION” (Chongqing University, priority 2020, published 2023).

The test system of one assay is cardiomyocytes. The assay is described as follows: Cardiomyocyte proliferation effect assay (Edu / cTnI immunofluorescence of heart tissue), adult female SD rats. Type of assay: in vivo. To be noted: tail vein injection 7 consecutive days, IGF1-24 100 μg/kg or molar equivalents, FIG. 1-2. As for the experimental part:
In certain embodiments, adult female SD rats were divided into five groups: PBS group, IGF1 group, IGF1Ec group, IGF1-24 group, and IGF1+IGF1Ec24 peptide group, with three rats in each group. The rats in each group were distinguished by ear clipping for subsequent protein injection according to the different body weights of the rats.
The rats in each group were injected with PBS, IGF1, IGF1Ec24 peptide, IGF1Ec and IGF1-24 for 7 consecutive days. Recombinant protein IGF1-24 was injected at 100 μg/kg, and the injection of the remaining proteins in each group was converted according to the molar amount of IGF1-24 injection as follows: 90 μg/kg for IGF1, 8.9 μg/kg for IGF1Ec24 peptide, 104 μg/kg for IGF1Ec.
Before protein injection, the rats were first weighed with a bench scale, and their body weight and the amount of protein injected were recorded and converted; then the rats were fixed with a rat fixator and their tails were exposed, and their tails were soaked in hot water for 1-2 min to stretch the tail vessels and facilitate the search for blood vessels; then the tails were wiped with alcohol cotton balls; after the tail vein was identified, the needle was inserted into the vessel at a 45° angle to the tail vein and the drug was slowly pushed in; the needle before pressing the wound with cotton to stop the bleeding, and then pull out the needle. […]

A further assay deals with sciatic nerve. Description: Sciatic nerve injury repair in rat sciatic nerve injury (clamp) model. Type of assay: in vivo, SD rats. From the text:
The 8-week-old female SD rats were randomly divided into sham-operated and operated groups, with 3 rats in each group. SD rats were anesthetized by intraperitoneal injection of 10% chloral hydrate, and after successful anesthesia, the rats were fixed, and their right hind limbs were exposed by shaving with a shaver, and disinfected twice with 75% alcohol. A 3-4 cm incision was made with a scalpel at the posterior lateral femur of the right hind limb to expose the biceps femoris muscle, and the muscle was bluntly separated with surgical scissors to expose the thick sciatic nerve. The sciatic nerve was clamped vertically with a microhemostatic forceps, buckled to the third buckle, maintained for 10 s, repeated 3 times at 5 s/interval, resulting in an injury area approximately 2 mm wide, and the sciatic nerve was put back in place and sutured layer by layer. Penicillin (40,000 units/100g) was injected intraperitoneally for three consecutive days to prevent wound infection. […]
A dark box runway of 70 cm in length, 10 cm in width and 10 cm in height was made. […] The footprint length (PL), toe width (TS) and middle toe width (IT) were then measured and brought into the Bain formula for calculation.Bain formula: SFI=109.5 (ETS−NTS)/NTS−38.3 (EPL−NPL)/NPL+13.3(EIT−NIT)/NIT−8.8. […]

For “IGF1-24: 97 amino acids: amino-terminal 70 identical to IGF1, carboxyl-terminal 24 identical to IGFEc24 peptide, joined by three Gly linkers (SEQ ID NO: 4)”, in the assay on cardiomyocytes, the “number of Edu-positive cardiomyocytes” value was found to be 2.6%. In addition, the “expression of GAP-43 in the sciatic nerve (immunofluorescence)” value in the assay with sciatic nerve (after 14 days of IGF1-24 100 μg/kg intraperitoneally, significantly different from control and Injury groups, FIG. 15) was “remained at a high level”. Further, the “sciatic nerve index (SFI)” value with sciatic nerve (treated group after IGF1-24 treatment, footprint analysis, Bain formula, FIG. 17) is listed as “close to that of the uninjured group”.
